Holding throughout (assay): inhibition of tumour cell growth, NCI panel, 48 h
Assay [1] has as its system RXF 393 renal.
Assay [2] concerns NCI-H460 lung.
Assay [3] relates to SF-539 CNS.
Assay [4] concerns CAKI-1 renal.
The test system of assay [5] is SK-MEL-2 melanoma.
For assay [6], the system named is M14 melanoma.
Assay [7] concerns HCC-2998 colon.
Assay [8] has as its system HOP-62 NSCLC.

SMILES strings stand for the structures.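 In this assay, cells in 96-well plates receive the compound at five concentrations for 48 hours. Endpoints are linearly interpolated between the surrounding concentrations. GI50: concentration for 50% inhibition of growth. TGI: concentration producing complete growth inhibition.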

For `COC(=O)C1CCC2(CC1)NC(=O)NC2=O` (stereo unspecified), the TGI in assay [1], in assay [2], in assay [3], in assay [4], in assay [5] and in assay [6] was over 100 µM in each case. The TGI in assay [7] and in assay [8] was over 100 µM in each case.
As for `NCCN.O=N[O-].O=N[O-].O=N[O-].O=N[O-].[Co+3].[K+]`, the GI50 in assay [2], in assay [3], in assay [5], in assay [6] and in assay [8] was over 100 µM each time. The TGI in assay [2], in assay [3], in assay [5], in assay [6] and in assay [8] was over 100 µM each time.
Take `CC(=O)OC12CCCCC1C1(CCCC1)NC2=O` (stereo unspecified): the TGI in assay [1], in assay [2], in assay [3], in assay [6], in assay [7] and in assay [8] was over 100 µM each time.
`CCOc1ccccc1Nc1nc(C)c(C(=O)CC(=O)C(=O)Nc2ccccc2)s1`: the TGI in assay [1], in assay [2], in assay [3], in assay [4], in assay [5] and in assay [6] was over 100 µM in each case. The TGI in assay [7] and in assay [8] was over 100 µM each time.
`CC(=O)/C=C\C(=O)NNS(=O)(=O)c1ccc(C)cc1`: the TGI in assay [1], in assay [2], in assay [3], in assay [4], in assay [5] and in assay [6] was over 100 µM in each case. For the same molecule, the TGI in assay [7] and in assay [8] was over 100 µM throughout.
Regarding `Cc1nn(C(=O)CC(=O)Nc2ccccc2Cl)c(C)c1N=Nc1ccccc1Cl`, the TGI in assay [1], in assay [2], in assay [3], in assay [4], in assay [5] and in assay [6] was over 100 µM in each case. Besides, the TGI in assay [7] and in assay [8] was over 100 µM in each case.
For `COc1cc(C2C(C(=O)Nc3ccc(Cl)c(Cl)c3)=C(C)NC(C)=C2C(=O)Nc2ccc(Cl)c(Cl)c2)ccc1O`, the TGI was determined as 12.8 µM in assay [1]; 35.5 µM in assay [2]; 24.9 µM in assay [3]; 34.1 µM in assay [4]; 23.5 µM in assay [5]; 26.9 µM in assay [6]. For the same molecule, the TGI in assay [7] came out at 23.5 µM; in assay [8], 23.1 µM.
Consider `O=C1[C@@H]2C3C=CC([C@H]4C(=O)N(CO)C(=O)[C@@H]34)[C@@H]2C(=O)N1CO`, for which the TGI was over 77.8 µM in assay [1]; over 55.1 µM in assay [2]; over 100 µM in assay [3]; over 100 µM in assay [4]; over 100 µM in assay [5]; over 75.2 µM in assay [6]. Further, the TGI in assay [7] and in assay [8] was over 100 µM throughout.
Turning to `O=C1c2ccccc2CC1C1(O)C(=O)Nc2c(Cl)cc(Cl)cc21` (stereo unspecified), the TGI in assay [1] is 85.8 µM; in assay [2], over 100 µM; in assay [4], over 100 µM; in assay [5] it was over 100 µM; in assay [6], over 100 µM; in assay [7], over 100 µM. Further, the TGI in assay [8] is over 100 µM.
For the molecule `Nc1n[nH]c(=O)c2c1c(Br)cn2C1OC(CO)C(O)C1O` (stereo unspecified), the TGI in assay [1] is 10.3 µM; in assay [2], over 100 µM; in assay [3], 25.8 µM; in assay [4], over 100 µM; in assay [5], 41.4 µM; in assay [6], 30.1 µM. For the same molecule, the TGI was found to be 24.7 µM in assay [7] and 98.2 µM in assay [8].
In the case of `COc1ccc(/C=C(\NC(=O)c2ccccc2)c2nc3ccccc3[nH]2)cc1`, the TGI in assay [2] was over 100 µM; in assay [3] it was over 100 µM; in assay [4], over 100 µM; in assay [5], 48.4 µM; in assay [6], over 100 µM; in assay [7] it was over 100 µM. The TGI in assay [8] is over 100 µM.
Regarding `O=S(O)CCCSSCCCCSSCCCS(=O)O`, the TGI in assay [1], in assay [2], in assay [3], in assay [4], in assay [5] and in assay [6] was over 100 µM each time. Moreover, the TGI in assay [7] and in assay [8] was over 100 µM each time.
As for `O=C1OC2C(O)COC2(OCc2c[nH]c3ccccc23)C1O` (stereo unspecified) (tested in a mixture with another compound), the TGI in assay [1], in assay [2], in assay [3], in assay [4], in assay [5] and in assay [6] was over 100 µM each time. The TGI in assay [8] was over 100 µM.
For the molecule `COC(=O)c1c(OC(=O)c2ccccc2)noc1CC(=O)OC1C=CCCC1` (stereo unspecified), the TGI in assay [1], in assay [2], in assay [3], in assay [4], in assay [5] and in assay [6] was over 100 µM each time. Besides, the TGI in assay [7] and in assay [8] was over 100 µM throughout.
As to `O=C(Nc1cccc(Cl)c1)c1cc2cc(N=Nc3ccc(Br)cc3)ccc2oc1=O`, the TGI in assay [1] was over 100 µM; in assay [2] it was over 100 µM; in assay [3] it was over 100 µM; in assay [4], over 100 µM; in assay [5], 52.7 µM; in assay [6], 52.9 µM. Further, the TGI in assay [7] was 88.7 µM; in assay [8], over 100 µM.
Take `COCC(O)CN1C(N)=NC(O)C1O` (stereo unspecified): the TGI in assay [1], in assay [2], in assay [3], in assay [4], in assay [5] and in assay [6] was over 100 µM in each case. Also, the TGI in assay [7] and in assay [8] was over 100 µM each time.
For `COc1ccc2nccc(C3OC(=O)N4CCC(=O)CC34)c2c1` (stereo unspecified), the TGI in assay [1], in assay [2], in assay [3], in assay [4], in assay [5] and in assay [6] was over 100 µM in each case. In addition, the TGI in assay [8] is over 100 µM.
For `CCCCCC1C2C(=O)NC(=O)C1C(=O)NC2=O` (stereo unspecified), the TGI in assay [1], in assay [2], in assay [3], in assay [4], in assay [5] and in assay [6] was over 100 µM each time. For the same molecule, the TGI in assay [7] and in assay [8] was over 100 µM throughout.
As to `O=[N+]([O-])c1ccc(-c2ccc(C3=Nn4c(nnc4-c4ccc(Cl)cc4)SC3)o2)cc1`, the TGI in assay [2], in assay [3], in assay [4], in assay [5], in assay [6] and in assay [7] was over 100 µM throughout. In addition, in assay [8], the TGI is over 76.3 µM.
Turning to `O=c1c2ccccc2nc(-c2ccccc2Cl)n1NC1OC(CO)C(O)C(O)C1O` (stereo unspecified), the TGI in assay [2], in assay [3], in assay [4], in assay [5], in assay [6] and in assay [7] was over 100 µM in each case. Also, in assay [8], the TGI is over 100 µM.
With `CC(=O)NC1C(=O)CC(c2ccccc2)N(C)C1c1ccccc1` (stereo unspecified), the TGI in assay [1], in assay [2], in assay [3], in assay [4], in assay [5] and in assay [6] was over 100 µM each time. In addition, the TGI in assay [7] and in assay [8] was over 100 µM in each case.
With `CC/C(=C(\c1ccccc1)c1ccc(OCC[N+](C)(C)C)cc1)c1ccccc1`, the TGI is 36.9 µM in assay [1]; 37.4 µM in assay [2]; 40.6 µM in assay [3]; 32.2 µM in assay [4]; 30.2 µM in assay [5]; 30.1 µM in assay [6]. Also, the TGI worked out at 34.2 µM in assay [7] and 56.5 µM in assay [8].
As for `Cc1ccc(S(=O)(=O)c2ccccn2)cc1`, the TGI in assay [1], in assay [2], in assay [3], in assay [4], in assay [5] and in assay [6] was over 100 µM in each case. Also, the TGI in assay [7] and in assay [8] was over 100 µM each time.
As to `Cc1nc2c(=O)n(C)c(=O)nc-2n(-c2ccc(Cl)cc2)c1C`, the TGI in assay [2], in assay [3], in assay [4], in assay [5], in assay [6] and in assay [7] was over 100 µM throughout. The TGI in assay [8] was over 100 µM.
With `S=C(N/N=C/c1ccccc1)NC1CC(c2ccccc2)Oc2ccccc21` (stereo unspecified), the TGI in assay [2], in assay [3], in assay [4], in assay [5], in assay [6] and in assay [7] was over 100 µM throughout.

These data come from PubChem BioAssay (NCI).
